According to patent publication US8697661B2, “Use of spinosyns and spinosyn compositions against herpesviridae viral infections” (priority 2009, dated 2014):

Legend:
[1] = system: macrophage mice cell type J774; details: J774 CC50 over amastigote IC50
[2] = system: Leishmania donovati MON-2 amastigotes; experiment: In vitro test against Leishmania amastigotes in J774 macrophages; details: Leishmania, J774, read-out: Amastigotes IC50
[3] = system: Leishmania donovati MON-2 promastigotes; experiment: In vitro test against Leishmania promastigotes; details: Leishmania, read-out: Promastigotes IC50
in vitro = details: mouse

IC50 [2] | IC50 [3] | SMILES | Selectivity Index CC50/IC50ama [1] | CC50 (in vitro)
12.8 ± 4 µM | 5.6 ± 0.6 µM | NC[C@@H]1O[C@H](O[C@H]2[C@@H](O)[C@H](O[C@@H]3[C@@H](O)[C@H](N)C[C@H](N)[C@H]3O[C@H]3O[C@H](CO)[C@@H](O)[C@H](O)[C@H]3N)O[C@@H]2CO)[C@H](N)[C@@H](O)[C@@H]1O [Aminosidine] | 34.96 | 448 ± 8.6 µM
0.84 ± 0.04 µM | 0.87 ± 0.04 µM | CCCCCCCCCCCCCCCCOP(=O)([O-])OCC[N+](C)(C)C [Miltefosine] | 39.04 | 32.8 ± 5.1 µM
